Reference: patent US20120141597A1 (priority 2009, published 2012)

System: Leptosphaeria nodorum (LEPTNO)
Test: In vitro fungitoxicity (growth inhibition) in copper-minus and copper-plus liquid medium
Type: cell-based
Conditions: CuCl2 10 μM, no test compound, copper-plus vs copper-minus medium, across experiments
Protocol: In vitro fungitoxicity assays against Leptosphaeria nodorum (LEPTNO) were conducted using the liquid growth medium described by Coursen and Sisler (American Journal of Botany 1960, 47, 541-549) except that copper micronutrient, normally included as CuSO4, was omitted. The medium, termed “copper-minus”, was prepared by dissolving 10 g glucose, 1.5 g K2HPO4, 2 g KH2PO4 and 1 g (NH4)2SO4 in 1 liter of deionized water and treating the solution with 0.5 g Chelex 100 resin (Bio-Rad Analytical grade, 50-100 mesh, sodium form, cat#142-2822) by stirring at room temperature for 1 h. MgSO4.7H2O (0.5 g) was added, and stirring was continued for a further hour. Trace elements (minus CuSO4), and vitamins described by Coursen and Sisler were added from concentrated stock solutions and the entire medium was sterilized by filtration. […]
LEPTNO was grown on potato dextrose agar in 9 cm diameter petri dishes for 7 days. […] The spores were resuspended in copper-minus medium, and the suspension adjusted to 2×10^5 spores per mL Microtiter plates were inoculated with 100 μL of this spore suspension and the plates incubated at 25° C. for 72 h before assessing fungal growth by measuring light scattering in a NepheloStar plate reader. Growth inhibition was determined by comparing growth in the presence of test compound with growth in control wells lacking test compound. […]

Structure (SMILES): O.O.[Cl][Cu][Cl] [CuCl2, CuCl2.2H2O]
- LEPTNO % Inhn. attributed to copper chloride alone: 7.1 ± 6.0%
